Laboratory results from patent US20250275959A1, “COMPOUNDS AND METHODS OF THEIR USE” (LEXICON PHARMACEUTICALS, INC., priority 2024, published 2025).

Experiment: Murine diet-induced obesity (DIO) model, Compounds B-D study
Type: in vivo, C57BL/6J mice
Conditions: DIO mice; for mean adipose weights versus control group: abdominal adipose tissue
Protocol: The effects of four representative compounds of the invention were tested in a mouse model of diet-induced obesity (DIO): • Compound A is (R)—N-(tert-butylsulfonyl)-4-(1-(5-(pyridin-3-yloxy)pyridin-2-yl)ethoxy)-3-(trifluoromethyl)benzamide; • Compound B is (R)-4-(1-(5-(cyclopropylmethoxy)pyridin-2-yl)propoxy)-N-((4-(2-(dimethylamino)ethoxy)phenyl)sulfonyl)-2,3-difluorobenzamide; • Compound C is (R)—N-((4-(2-(dimethylamino)ethoxy)piperidin-1l-yl)sulfonyl)-2,3-difluoro-4-(1-(5-(pyridin-2-yloxy)pyridin-2-yl)propoxy)benzamide; and • Compound D is (R)-2,3-difluoro-N-((4-methylpiperazin-1-yl)sulfonyl)-4-(1-(5-(pyridin-2-yloxy)pyridin-2-yl)propoxy)benzamide.
The mice used in these experiments were C57BL/6J mice fed a high-fat diet (D12492 from Research Diets) ad libitum during the study period. The vehicle and test article formulations were 10% w/v Solutol in water.
In this study, three compounds tested at 30 mg/kg were compared against vehicle control over a month. After their acclimation period, DIO mice were equally divided into groups of ten mice each based on body weight. The animals were pre-dosed for three days prior to formal dosing (once per day treatment every group), as well as weight and food intake were recorded from Day −2 onwards. From Day 1 to Day 27, the animals in the dosing group were administered orally by gavage at 5:00 p.m. every day. All animals were fasted overnight after dosing on Day 28 and Day 29. Then the blood (retro-orbital bleed) of mice from each group was collected at 7:00 a.m. to separate out the serum for measuring total cholesterol levels (TC), triglyceride (TG), aminotransferase alanine (ALT), aspartate aminotransferase (AST) and total bilirubin (TBil) levels on Day 29. On day 30, all animals were performed OGTT test (0 min, 15 min, 30 min, 60 min, 90 min and 120 min) and measured insulin levels (0 min, 15 min, 30 min and 60 min). On day 32, all animals were injected insulin after 4 hours fasting, then performed ITT test (0 min, 15 min, 30 min, 60 min and 90 min). On day 33, Epididymal white adipose tissue (eWAT), jejunum, liver, heart and brain were collected; eWAT, liver and heart weights were recorded. All of the adipose tissue in the abdominal cavity was collected and weighted, and the fatty tissue coefficient (body fat ratio) was calculated and then stored at −80° C. for inspection.
• 1. Body weight and Food Consumption: Pre-dose every day from Day −2 onwards. • 2. Day −2,—1 and Day 0: Handle mice and gavage with vehicle. • 3. Day 1˜27: Dose˜5:00 PM. • 4. Day 28: Dose˜5:00 PM. Fast overnight. • 5. Day 29: Determine total cholesterol levels and triglyceride, ALT, AST, total bilirubin levels˜7:00 AM. Resume feeding. • 6. Day 29: Dose˜5:00 PM. Fast overnight. • 7. Day 30: (No drug administration) Oral glucose tolerance test (OGTT) with glucose levels measured at Pre-dose, 15 min, 30 min, 60 min, 90 min and 120 min after the glucose challenge. And insulin levels will be test at time 0 min, 15 min, 30 min and 60 min after the glucose challenge. • 8. Day 30˜31: Dose˜5:00 PM. • 9. Day 32: (No drug administration) ITT test (two days after the OGTT test): Fast 4 h. After insulin injection, the levels of glucose will be measured at Pre-dose, 15 min, 30 min, 60 min and 90 min. • 10. After the ITT test. Collect serum with a terminal bleed from all 50 mice. • 11. Collect epidydimal WAT (eWAT) pad, jejunum, liver, heart, and brain. • 12. Record eWAT, liver, and heart weights. • 13. Before freezing tissue/serum: • (i) Assess Drug Concentration; serum, liver, eWAT, heart, jujenum, and brain. (25 serum samples; 5 mice/group will progress to biomarker study and remaining 25 serum samples saved for future analysis). • 14. Prepare liver, heart and eWAT tissue for histopathology analysis. • (ii) Liver for all 50 mice; HE staining to assess liver steatosis. • (iii) Heart or all 50 mice; HE and DAPI staining to assess cardiac morphology. […]

CC[C@@H](Oc1ccc(C(=O)NS(=O)(=O)c2ccc(OCCN(C)C)cc2)c(F)c1F)c1ccc(OCC2CC2)cn1 [Compound B, (R)-4-(1-(5-(cyclopropylmethoxy)pyridin-2-yl)propoxy)-N-((4-(2-(dimethylamino)ethoxy)phenyl)sulfonyl)-2,3-difluorobenzamide]
mean body weight versus control group (30 mg/kg oral daily): significantly lower than that of the control group from Day 15 to the end
overall food consumption versus control group (30 mg/kg oral daily): significantly lower than that of the control group
Body Weight (g)/Day (30 mg/kg oral daily, Day 1): 42.2 ± 4.7 g
Body Weight (g)/Day (30 mg/kg oral daily, Day 2): 42.2 ± 4.5 g
Body Weight (g)/Day (30 mg/kg oral daily, Day 3): 42.3 ± 4.7 g
Body Weight (g)/Day (30 mg/kg oral daily, Day 4): 43 ± 3.9 g
Body Weight (g)/Day (30 mg/kg oral daily, Day 5): 43.1 ± 3.9 g
Body Weight (g)/Day (30 mg/kg oral daily, Day 6): 43 ± 4.1 g
Body Weight (g)/Day (30 mg/kg oral daily, Day 7): 42.8 ± 4 g
Body Weight (g)/Day (30 mg/kg oral daily, Day 8): 43.1 ± 4.3 g
Body Weight (g)/Day (30 mg/kg oral daily, Day 9): 42.9 ± 4.5 g
Body Weight (g)/Day (30 mg/kg oral daily, Day 10): 43.3 ± 4.5 g
Body Weight (g)/Day (30 mg/kg oral daily, Day 11): 43.1 ± 4.6 g
Body Weight (g)/Day (30 mg/kg oral daily, Day 12): 42.7 ± 4.6 g
Body Weight (g)/Day (30 mg/kg oral daily, Day 13): 42.5 ± 4.6 g
Body Weight (g)/Day (30 mg/kg oral daily, Day 14): 42.3 ± 4.6 g
Body Weight (g)/Day (30 mg/kg oral daily, Day 15): 42.6 ± 4.5 g
Body Weight (g)/Day (30 mg/kg oral daily, Day 16): 42.5 ± 4.5 g
Body Weight (g)/Day (30 mg/kg oral daily, Day 17): 41.7 ± 4.6 g
Body Weight (g)/Day (30 mg/kg oral daily, Day 18): 42.1 ± 4.8 g
Body Weight (g)/Day (30 mg/kg oral daily, Day 19): 42.2 ± 4.7 g
Body Weight (g)/Day (30 mg/kg oral daily, Day 20): 42.2 ± 4.5 g
Body Weight (g)/Day (30 mg/kg oral daily, Day 21): 42.3 ± 4.7 g
Body Weight (g)/Day (30 mg/kg oral daily, Day 22): 42.4 ± 4.7 g
Body Weight (g)/Day (30 mg/kg oral daily, Day 23): 42.6 ± 4.7 g
Body Weight (g)/Day (30 mg/kg oral daily, Day 24): 42.6 ± 4.4 g
Body Weight (g)/Day (30 mg/kg oral daily, Day 25): 42.5 ± 4.8 g
Body Weight (g)/Day (30 mg/kg oral daily, Day 26): 42.8 ± 4.7 g
Body Weight (g)/Day (30 mg/kg oral daily, Day 27): 43 ± 4.8 g
Body Weight (g)/Day (30 mg/kg oral daily, Day 28): 42.9 ± 4.7 g
Body Weight (g)/Day (30 mg/kg oral daily, Day 29): 42.3 ± 4.4 g
Body Weight (g)/Day (30 mg/kg oral daily, Day 30): 40.4 ± 4.2 g
Body Weight (g)/Day (30 mg/kg oral daily, Day 31): 40.9 ± 4.2 g
Body Weight (g)/Day (30 mg/kg oral daily, Day 32): 40.3 ± 4.1 g
Body Weight (g)/Day (30 mg/kg, Day 0 (pre-dose)): 42.1 ± 4.8 g
eWAT coefficient versus control group (30 mg/kg, Day 33): slightly lower than that of the control group
Body Weight (g)/Day (30 mg/kg, Day −1 (pre-dose)): 41.7 ± 4.6 g
Body Weight (g)/Day (30 mg/kg, Day −2 (pre-dose)): 42.5 ± 4.5 g
mean adipose weights versus control group (30 mg/kg): significantly lower than that of the control group
ITT blood glucose versus control group (Day 32, at 30 minutes and 60 minutes after insulin): significantly lower than that of the control group

CC[C@@H](Oc1ccc(C(=O)NS(=O)(=O)N2CCC(OCCN(C)C)CC2)c(F)c1F)c1ccc(Oc2ccccn2)cn1 [Compound C, (R)-N-((4-(2-(dimethylamino)ethoxy)piperidin-1-yl)sulfonyl)-2,3-difluoro-4-(1-(5-(pyridin-2-yloxy)pyridin-2-yl)propoxy)benzamide]
mean body weight versus control group (30 mg/kg oral daily): significantly lower than that of the control group from Day 23
overall food consumption versus control group (30 mg/kg oral daily): significantly lower than that of the control group
Body Weight (g)/Day (30 mg/kg oral daily, Day 1): 45 ± 4.9 g
Body Weight (g)/Day (30 mg/kg oral daily, Day 2): 44.8 ± 5 g
Body Weight (g)/Day (30 mg/kg oral daily, Day 3): 44.3 ± 4.9 g
Body Weight (g)/Day (30 mg/kg oral daily, Day 4): 44.3 ± 4.9 g
Body Weight (g)/Day (30 mg/kg oral daily, Day 5): 44.1 ± 4.9 g
Body Weight (g)/Day (30 mg/kg oral daily, Day 6): 44 ± 4.7 g
Body Weight (g)/Day (30 mg/kg oral daily, Day 7): 43.5 ± 4.9 g
Body Weight (g)/Day (30 mg/kg oral daily, Day 8): 44 ± 5 g
Body Weight (g)/Day (30 mg/kg oral daily, Day 9): 44.2 ± 4.8 g
Body Weight (g)/Day (30 mg/kg oral daily, Day 10): 44.2 ± 4.7 g
Body Weight (g)/Day (30 mg/kg oral daily, Day 11): 44.4 ± 4.8 g
Body Weight (g)/Day (30 mg/kg oral daily, Day 12): 43.9 ± 4.9 g
Body Weight (g)/Day (30 mg/kg oral daily, Day 13): 43.7 ± 4.7 g
Body Weight (g)/Day (30 mg/kg oral daily, Day 14): 43.7 ± 4.7 g
Body Weight (g)/Day (30 mg/kg oral daily, Day 15): 43.9 ± 4.8 g
Body Weight (g)/Day (30 mg/kg oral daily, Day 16): 44.1 ± 4.8 g
Body Weight (g)/Day (30 mg/kg oral daily, Day 17): 43.5 ± 4.7 g
Body Weight (g)/Day (30 mg/kg oral daily, Day 18): 43.6 ± 4.6 g
Body Weight (g)/Day (30 mg/kg oral daily, Day 19): 43.9 ± 4.9 g
Body Weight (g)/Day (30 mg/kg oral daily, Day 20): 44.1 ± 4.8 g
Body Weight (g)/Day (30 mg/kg oral daily, Day 21): 44.2 ± 5 g
Body Weight (g)/Day (30 mg/kg oral daily, Day 22): 44.1 ± 5.1 g
Body Weight (g)/Day (30 mg/kg oral daily, Day 23): 44.1 ± 5.3 g
Body Weight (g)/Day (30 mg/kg oral daily, Day 24): 43.8 ± 5.3 g
Body Weight (g)/Day (30 mg/kg oral daily, Day 25): 43.9 ± 5.2 g
Body Weight (g)/Day (30 mg/kg oral daily, Day 26): 43.9 ± 5.2 g
Body Weight (g)/Day (30 mg/kg oral daily, Day 27): 44.1 ± 5.2 g
Body Weight (g)/Day (30 mg/kg oral daily, Day 28): 43.9 ± 5.3 g
Body Weight (g)/Day (30 mg/kg oral daily, Day 29): 43.2 ± 5.2 g
Body Weight (g)/Day (30 mg/kg oral daily, Day 30): 41.4 ± 5 g
Body Weight (g)/Day (30 mg/kg oral daily, Day 31): 41.6 ± 5.2 g
Body Weight (g)/Day (30 mg/kg oral daily, Day 32): 41 ± 5 g
Body Weight (g)/Day (30 mg/kg, Day 0 (pre-dose)): 44.9 ± 5.1 g
Body Weight (g)/Day (30 mg/kg, Day −1 (pre-dose)): 44.9 ± 5.3 g
Body Weight (g)/Day (30 mg/kg, Day −2 (pre-dose)): 44.8 ± 5.2 g
mean adipose weights versus control group (30 mg/kg): significantly lower than that of the control group
ITT blood glucose versus control group (Day 32, at 15, 30, 60 and 90 minutes after insulin): significantly lower than that of the control group
